Assay results: the METLIN SMRT retention time set (Domingo-Almenara et al. 2019)

Test: gradient 5% acetonitrile 3 min, to 50% in 2 min, to 85% in 15 min, held 3 min, 100 µL/min
Conditions: column: Zorbax Extend-C18 2.1 x 50 mm; eluents: water / acetonitrile, 0.1% formic acid
Procedure, shortened: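 Mixtures of ~100 pure standards were chromatographed on a Zorbax Extend-C18 column (2.1 × 50 mm, 1.8 μm) at 100 μL/min using water and acetonitrile, each with 0.1% formic acid. Detection used a quadrupole time-of-flight mass spectrometer in positive and negative ionization mode, and data collection spanned 3 months. Retention time was obtained from adduct peaks picked computationally and each checked manually.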

| Compound | RP-LC retention time |
| --- | --- |
| CCCn1ccc2sc(C)c(C(=O)NCc3cccc(OC)c3)c2c1=O | 856 s |
| CCOC(=O)CSc1nc2c(sc3ccccc32)c(=O)n1CCc1c[nH]c2ccccc12 | 1220 s |
| COc1cccc(C(=O)Nc2cc(-c3cccnc3)no2)c1 | 730 s |
| Cc1ccc(S(=O)(=O)c2cnc(N3CCC(C(N)=O)(N4CCCCC4)CC3)nc2N)cc1C | 654 s |
| CCc1ccc(S(=O)(=O)Nc2cc(-c3cn4ccccc4n3)ccc2C)cc1 | 695 s |
| COc1ccccc1OCC1c2ccsc2CCN1C(=O)CN(C(=O)NC(C)C)C(C)(C)C (centres undefined) | 595 s |
| CC(=O)N(Cc1nn(C)c2c1CN(CC1=Cc3ccccc3OC1)CC2)c1ccccc1 | 654 s |
| O=C(CCCS(=O)(=O)c1ccccc1)Nc1nnc(-c2ccsc2)o1 | 674 s |
| CC1CCN(C(=O)c2cn(-c3ccc(-c4nc(C(C)(C)C)no4)cn3)cn2)CC1 | 1130 s |
| Cn1cnc(S(=O)(=O)N2CC(Oc3ccccc3-c3nc(C4CC4)no3)C2)c1 | 794 s |
| Cc1cnn(Cc2nc(-c3ccc(NC(=O)Cc4ccccc4C)cc3)oc2C)c1 | 954 s |
| COc1ccc2c(ccn2CC(=O)N[C@@H](C)C(=O)O)c1 | 665 s |
| COCCn1cc(CC(=O)Nc2cccc(SC)c2)c2cccnc21 | 787 s |
| CCc1nn(C)c(=O)c2cc(S(=O)(=O)NCc3cc(F)cc(F)c3)cn12 | 882 s |
| O=[N+]([O-])c1cccc(C2Oc3ccccc3C3CC(c4cccnc4)=NN32)c1 (centres undefined) | 790 s |
| COc1cc(=O)n(-c2ccccc2C)nc1C(=O)Nc1nc2ccc(C)cc2s1 | 861 s |
| COc1ccc(OC)c(C(O)CN2CCN(c3ccc(C)cc3)CC2)c1 (centres undefined) | 653 s |
| CCCN1CCN(C(=O)C(C)C2CCN(C(=O)c3[nH]c(C)c(C(=O)OCC)c3C)CC2)CC1 (centres undefined) | 620 s |
| Nc1c2ccccc2nc2ccccc12 | 637 s |
| Cc1cccc(S(=O)(=O)N2CCCC2c2nc(-c3cccc(C(F)(F)F)c3)no2)c1 (centres undefined) | 1200 s |
| CCOC(=O)C(CC)n1nc2ccc(S(=O)(=O)N3CCC(C)CC3)cn2c1=O (centres undefined) | 990 s |
| COc1cn(CC(=O)Nc2cc(C)on2)c(CN2CCCCC2)cc1=O | 566 s |
| Cc1cc(C)cc(NC(=O)N2CC(c3nc(C(C)C)nn3C)C2)c1 | 718 s |
| Cc1csc(-c2cc(S(=O)(=O)NCc3ccc(Br)cc3)c(C)s2)n1 | 1050 s |
| COc1ccc(OC)c(NC(=O)Cn2nc3cc(-c4ccccc4)nc(C)n3c2=O)c1 | 965 s |
| Cc1cccc(OCc2nc(-c3cccc(-c4ccnn4C)c3)no2)c1 | 824 s |

| Compound | RP-LC retention time |
| --- | --- |
| COc1cc(N2C=C(C#N)S(=O)(=O)c3c(F)cccc32)cc(OC)c1OC | 857 s |
| CC1(CNC(=O)c2ccccc2Br)CCOCC1 | 698 s |
| O=C(c1cccc(Br)c1)N1CCc2nc[nH]c2C1 | 595 s |
| CC(C)n1c(=O)oc2cc(-c3noc(-c4cccc(F)c4)n3)ccc21 | 1200 s |
| CCOC(=O)CNC(=O)C(c1ccccc1)n1cccc1 (centres undefined) | 784 s |
| Cc1ccc(-c2nc3ncccn3c2Nc2ccccc2)cc1 | 714 s |
| O=C(NC1CCCCCC1)C1CCCN(C(=O)c2cccc(C(F)(F)F)c2)C1 (centres undefined) | 948 s |
| O=C(CN1C(=O)CCCc2cc(S(=O)(=O)N3CCCCC3)ccc21)NC1CCCCCC1 | 942 s |
| CN1C(=O)COc2ccc(-c3csc(NC(=O)c4cccc(Cl)c4)n3)cc21 | 1020 s |
| COc1ccc(-c2noc(-c3ccc(NCCCN4CCC(C)CC4)nc3)n2)cc1 | 666 s |
| O=C(c1ccsc1)N1CCC(N(C(=O)C2CC2)C2CCOCC2)CC1 | 662 s |
| CN(c1ccccc1)c1nc(=O)n(CC(=O)Nc2ccc3c(c2)OCCO3)c2ccccc12 | 785 s |
| Cc1ccc(NC(=O)Cn2c(C)nc3c(sc4nc(-c5ccccc5)ccc43)c2=O)cc1 | 1060 s |
| CCNC(=O)Nc1ccc2c(c1)CN(Cc1sccc1C)CCO2 | 608 s |
| CC(NC(=O)Cc1cn(C)c2ncccc12)c1ccc(F)cc1 (centres undefined) | 695 s |
| C=CCn1c(=O)c2ccccc2n(Cc2nc(-c3ccc(C)cc3)no2)c1=O | 1070 s |
| CCCC(=O)Nc1nc(-c2ccc(Br)s2)cs1 | 993 s |
| COc1ccc(NC(=O)N2CCC3(CC2)N=C(c2ccccc2)C(=O)N3)c(OC)c1 | 764 s |
| O=C(Nc1ccc(N2CCN(c3ccccc3)C2=O)nc1)c1ccncc1 | 689 s |
| CCCN(CCC)S(=O)(=O)c1ccc(C(=O)Nc2nc(-c3ccc(OC)cc3)c(C)s2)cc1 | 1330 s |
| O=C(COc1cccc2c1CCN(Cc1ccccc1F)C2=O)NCc1ccco1 | 790 s |
| COC(=O)c1c(-c2ccccc2)noc1N1CCOCC1 | 860 s |
| O=c1c2nnc3ccnn3c2ccn1CCc1c[nH]c2ccccc12 | 700 s |
| CN(C)c1ccc(-c2nc3cnccn3c2NC2CCCC2)cc1 | 764 s |
| COc1ccc(OC)c(CNC(=O)c2nc(N3CCOCC3)c3ccccc3n2)c1 | 686 s |

Next, values leading:

| RP-LC retention time | Compound |
| --- | --- |
| 735 s | Cc1ccccc1NC(=O)Cn1nc(C(=O)N2CCOCC2)c2ccccc21 |
| 596 s | CCn1c(=O)c(NCCc2ccc(Cl)cc2)nc2ccncc21 |
| 758 s | Cn1cnc2c(C(=O)N3CCCC3)nn(-c3ccc(Cl)cc3)c2c1=O |
| 756 s | O=C(NC1CCN(c2cc(-c3ccccc3)[nH]n2)C1)c1ccccc1F (centres undefined) |
| 676 s | CCCNC(=O)C1CCCN(c2ccc(SCC(=O)NCCc3ccc(Cl)cc3)nn2)C1 (centres undefined) |
| 871 s | O=C(Nc1ccc(F)cc1)C1CC(=O)N(CCc2c[nH]c3ccc(Cl)cc23)C1 (centres undefined) |
| 799 s | CNC(=O)Nc1ccc(C2(C(=O)N3CCN(c4ccccc4F)CC3)CCC2)cc1 |
| 784 s | CCOc1ccc(CNC(=O)C2CCCN(c3ncnc4c3oc3ccccc34)C2)cc1 (centres undefined) |
| 899 s | Cc1csc(NC(=O)C2CCN(S(=O)(=O)c3cc(-c4noc(C)n4)ccc3Cl)CC2)n1 |
| 779 s | Cc1ccnc(N2CCCC(C(=O)NCCc3ccccc3Cl)C2)n1 (centres undefined) |
| 730 s | Cc1cccc(NC(=O)C2CCCN(c3ncnc4c3nc3n4CCCCC3)C2)n1 (centres undefined) |
| 758 s | COc1ccc(CCS(=O)(=O)NCC2(O)CCOCC2)cc1 |
| 587 s | O=C(CCc1c(-c2ccc(F)cc2)nc2ccccn12)NC1CC1 |
| 755 s | CCC(=O)N1CCc2cc(N3CC(C(=O)NCc4ccc(F)cc4F)CC3=O)ccc21 (centres undefined) |
| 607 s | CCOC(=O)c1c(C)[nH]c(CCC(=O)NCCN2CCCCC2)c1C |
| 734 s | Cc1ccc(NC(=O)C2CCN(c3cc(N4CCSCC4)ncn3)CC2)cc1F |
| 702 s | O=C(Cc1cccc(Cl)c1)NC1CCN(c2cc(-c3cccs3)[nH]n2)C1 (centres undefined) |
| 598 s | CCOc1ccc(CN2C[C@@H]3C(=O)N(CCN4CCc5ccccc5C4)C(=O)[C@@H]3C2)cc1 |
| 923 s | O=C(c1cc2ccccc2[nH]1)N1CCN(c2cc(-c3ccc(Cl)cc3)[nH]n2)CC1 |

| RP-LC retention time | Compound |
| --- | --- |
| 895 s | CCN(CC)S(=O)(=O)c1ccc2c(c1)N(CC(=O)N(C)Cc1ccccc1)C(=O)C1CCCCN21 (centres undefined) |
| 772 s | O=C(Nc1ccccc1F)C1CCc2nc(N3CCCCC3)ncc2C1 (centres undefined) |
| 884 s | O=C(Nc1nnc(C2CC(=O)N(c3ccc(Cl)cc3)C2)o1)c1ccc(C(F)(F)F)cc1 (centres undefined) |
| 892 s | O=C(CN1C(=O)CN(C(=O)NCc2ccccc2)c2ccccc21)NC1CCCc2ccccc21 (centres undefined) |
| 634 s | COCCN1C(=O)C(CC(=O)NCCCn2cccn2)=C2CCCCC21 (centres undefined) |
| 805 s | CCOc1ccc(N2CC(c3nnc(NC(=O)c4ccc(Br)cc4)o3)CC2=O)cc1 (centres undefined) |
| 610 s | COc1cccc(-c2cc(C(=O)N3CCN(c4ccc(N5CCOCC5)nn4)CC3)[nH]n2)c1 |
| 638 s | CCOC(=O)c1noc2ncnc(Nc3ccc(CN4CCN(CC)CC4)cc3)c12 |
| 847 s | CCc1ccc(NC(=O)C2CC(=O)N(c3n[nH]c4cccc(F)c34)C2)cc1 (centres undefined) |
| 1020 s | CCc1nc(-c2csc(S(=O)(=O)N3CCCC(C(=O)NC4CCCCC4)C3)c2)no1 (centres undefined) |
| 770 s | COc1ccc(NC(=O)C2CC(=O)N(c3ccc4c(c3)CCN4C(=O)C3CC3)C2)cc1F (centres undefined) |
| 642 s | O=C(NCC(F)(F)F)C1CCN(Cc2noc(-c3ccc(F)cc3)n2)CC1 |
| 637 s | CCn1c(C(=O)NCCN2CCCCC2C)c(N2CCCC2=O)c2cc(OC)ccc21 (centres undefined) |
| 725 s | COc1ccc(CN2N=C(C(=O)N3CCCC3)S(=O)(=O)c3ccccc32)cc1F |
| 1090 s | Cc1ccc2c(c1)N(S(C)(=O)=O)CCC(C(=O)Nc1ccc(C)c(Cl)c1)O2 (centres undefined) |
| 605 s | CN(C)CCCNC(=O)c1ccc2c(c1)nc1n2CCN(C2CCCCC2)C1=O |
| 600 s | Cn1c(N2CCCC(C(=O)NCCCN3CCN(c4ccccc4)CC3)C2)cc(=O)n(C)c1=O (centres undefined) |
| 685 s | O=C(NCC1CC1)c1cn(C2CN(C(=O)Nc3ccc4c(c3)OCCO4)C2)nn1 |
| 650 s | CCC(C(=O)N1CCN(c2cc(C)n3c(C)nnc3n2)CC1)c1ccccc1 (centres undefined) |
